{
  "source": "patent US11602529B2",
  "about": "“Use of EZH2 inhibitors for treating cancer” (Epizyme, Inc., priority 2017, dated 2023)",
  "key": {"[1]": {"test": "In vivo efficacy in animal models"}, "[2]": {"tested_on": "refractory B-cell non-Hodgkin lymphoma and advanced solid tumors, including epithelioid sarcoma", "conditions": "cited from earlier work"}, "[3]": {"tested_on": "epithelioid sarcoma", "test": "PD-L1, CD4 and CD8 staining of pre- and post-dose tissue biopsies of a subject with epithelioid sarcoma"}, "[4]": {"tested_on": "genetically defined cancer cells", "test": "Target methyl mark inhibition and killing of cancer cells in vitro", "format": "cell-based"}, "[5]": {"tested_on": "soft tissue sarcoma", "test": "Post-treatment biopsy of patients with soft tissue sarcoma (Example 2)"}, "[6]": {"test": "Oral bioavailability", "conditions": "in vivo"}},
  "data": [
    {"smiles": "CCN(c1cc(-c2ccc(CN3CCOCC3)cc2)cc(C(=O)NCc2c(C)cc(C)[nH]c2=O)c1C)C1CCOCC1", "note": "[Compound 44, tazemetostat]", "values": [
      {"measurement": "in vivo efficacy following inhibition of target methyl mark", "setting": "[1]", "value": "sustained in vivo efficacy"},
      {"measurement": "PD-L1 expression in tumor sample", "setting": "[2]; after 4 weeks of treatment", "value": "modest expression of PD-L1 on immune cells"},
      {"measurement": "histological assessment of on-treatment tumor specimen", "setting": "[2]; not present at baseline nor at disease progression", "value": "strong immune infiltrate"},
      {"measurement": "clinical activity in patients", "setting": "[2]; phase I clinical study", "value": "antitumor activity"},
      {"measurement": "PD-L1 expression in tumor after treatment", "setting": "[3]; 800 mg twice daily orally, 25 weeks, post-dose vs pre-dose biopsy", "value": "upregulated PD-L1"},
      {"measurement": "T-cell markers CD4 and CD8 in tumors with upregulated PD-L1", "setting": "[3]; after treatment", "value": "positive for T-cell markers CD4 and CD8"},
      {"measurement": "CD8+ immune cells, share of overall cellularity", "setting": "[3]; post-dose sample, 800 mg twice daily orally, 25 weeks (pre-dose about 5%)", "value": "about 30%"},
      {"measurement": "CD4+ histiocytoid cells, cellularity", "setting": "[3]; post-dose sample, 800 mg twice daily orally, 25 weeks (pre-dose about 20%)", "value": "about 5%"},
      {"measurement": "CD4+ cells, share of overall cellularity", "setting": "[3]; post-dose sample, 800 mg twice daily orally, 25 weeks (pre-dose also about 2%)", "value": "about 2%"},
      {"measurement": "effect of target methyl mark inhibition on cancer cells", "setting": "[4]", "value": "killing of genetically defined cancer cells in vitro"},
      {"measurement": "cells present in the tumor showing expression of PD-L1", "setting": "[5]; biopsy after 20 weeks of treatment", "value": "more than 50%"},
      {"measurement": "cells present in the tumor showing expression of PD-L1", "setting": "[5]; second patient, biopsy after 25 weeks of treatment", "value": "more than 80%"},
      {"measurement": "oral bioavailability", "setting": "[6]", "value": "orally bioavailable"}
    ]}
  ]
}
